The values below are quoted from earlier work in patent publication US5981578A (priority 1997, dated 1999).

The conditions of the series: in just a few days.

Regarding `O=C1O[C@H]([C@@H](O)CO)C(O)=C1O` [Ascorbic acid, ascorbic acid], the “color development of aqueous preparations” value is “develop colors, progressively, from light yellow to orange dark brown”.
